The source of these data is ChEMBL document CHEMBL1201862, “PubChem BioAssay data set” (2004).

Values joined by “and” are separate entries in the source; they are usually repeats but may differ in a detail not shown here. Identical values can stand only once.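 A five-concentration, 48-hour dose response in 96-well plates underlies each endpoint, interpolated linearly between surrounding concentrations. GI50: concentration for 50% inhibition of growth.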 Active and inactive are the calls of the source. No stated cut-off is given here; in the data, active = GI50 up to about 1.1 µM and inactive = higher. *1 amine or outer side, *2 acyl side, *3 side chain or, on linkers, in order; H or OH if unused. Where a SMILES comes first, the peptide text is derived from it. Bridges are numbered along the chain shown (N, C = ends). Roman numbers before positions name the chains, in order. [ ]: non-standard residue; d: D form. Actinocin(1to9) = Cc1c2oc3c(C)ccc(C(=O)[*:2])c3nc-2c(C(=O)[*:1])c(N)c1=O; NMeV = CN[CH](C(=O)O)C(C)C; Sar = CNCC(=O)O

Among the test systems are 786-0; OVCAR-3; NCI/ADR-RES; OVCAR-8; SF-268; MDA-MB-435; MCF7; SK-MEL-28; EKVX; KM12; UO-31; DU-145; T47D; SN12C; NCI-H460; SF-295; CCRF-CEM; SK-MEL-5; RXF 393.
Experiment in all cases: inhibition of tumour cell growth, NCI panel, 48 h

Take `Cc1cccc(N/C(Sc2ccccc2)=C(/C(Cl)=C(Cl)Cl)[N+](=O)[O-])c1`: the GI50 with 786-0 is 16.9 µM (inactive); in the test with OVCAR-3 it was 10 µM (inactive); in the test with NCI/ADR-RES, 15.8 µM (inactive); in the test with OVCAR-8, 16.1 µM (inactive); with SF-268, 17.8 µM (inactive); with MDA-MB-435, 17.7 µM (inactive). In addition, the GI50 in the test with MCF7 was 29.3 µM (inactive); in the test with SK-MEL-28 it was 17.4 µM (inactive); in the test on EKVX, 16.9 µM (inactive); in the test on KM12, 23.1 µM (inactive); with UO-31, 14.7 µM (inactive); with DU-145, 20.5 µM (inactive). Further, the GI50 with T47D is 18 µM (inactive); in the test with SN12C, 15.3 µM (inactive); in the test on NCI-H460 it was 35 µM (inactive); in the test with SF-295, 17.1 µM (inactive); with CCRF-CEM, 27 µM (inactive).
For `Cc1[nH]c2c(c1Cc1ccccc1)C1=NC=C(O)NN1C=N2`, the GI50 was > 100 µM (inactive) with 786-0; 60.4 µM (inactive) in the test on OVCAR-3; > 100 µM (inactive) in the test with NCI/ADR-RES; 70 µM (inactive) in the test with SK-MEL-5; 51.4 µM (inactive) in the test with OVCAR-8; 94.2 µM (inactive) in the test with SF-268. Moreover, the GI50 in the test on MDA-MB-435 is > 100 µM (inactive); in the test on MCF7, 14.9 µM (inactive); in the test with SK-MEL-28, > 100 µM (inactive); with EKVX, > 100 µM (inactive); in the test on KM12, > 100 µM (inactive); with UO-31 it was > 100 µM (inactive). Further, the GI50 is > 100 µM (inactive) in the test with DU-145; 14.4 µM (inactive) with T47D; > 100 µM (inactive) with SN12C; 16.6 µM (inactive) in the test with RXF 393; 36.4 µM (inactive) in the test on NCI-H460; 62.4 µM (inactive) in the test on SF-295. Further, in the test with CCRF-CEM, the GI50 was 20.5 µM (inactive).
As to `CCOC(=O)C(Cc1cn(S(=O)(=O)c2ccc(C)cc2)cn1)P(=O)(OCC)OCC` (stereo unspecified), the GI50 with 786-0, in the test with OVCAR-3, with NCI/ADR-RES, with SK-MEL-5, with OVCAR-8 and in the test with SF-268 was > 100 µM (inactive) each time. Besides, the GI50 with MDA-MB-435, in the test on MCF7, with SK-MEL-28, in the test with EKVX, with KM12 and in the test on UO-31 was > 100 µM (inactive) in each case. Also, the GI50 in the test on DU-145, in the test with T47D, in the test with SN12C, in the test with RXF 393, in the test with NCI-H460 and in the test on SF-295 was > 100 µM (inactive) throughout. Besides, the GI50 in the test with CCRF-CEM was > 100 µM (inactive).
With `COc1ccc(CC2NC(=O)C(NC(=O)c3c4nc5c(C(=O)NC6C(=O)NC(Cc7ccc(OC)cc7)C(=O)N7CCCC7C(=O)N(C)CC(=O)N(C)C(C(C)C)C(=O)OC6C)ccc(C)c5oc-4c(C)c(=O)c3N)C(C)OC(=O)C(C(C)C)N(C)C(=O)CN(C)C(=O)C3CCCN3C2=O)cc1` (stereo unspecified) (I: TY(Me)P[Sar][NMeV] / II: TY(Me)P[Sar][NMeV]; ester I:1-I:C, II:1-II:C; linker I:N-II:N via Actinocin(1to9); configuration not given here), the GI50 in the test with 786-0 was 0.0141 µM (active); in the test on OVCAR-3 it was 0.0123 µM (active); with NCI/ADR-RES it was 0.48 µM (active); with SK-MEL-5, < 0.001 µM (active); with OVCAR-8, < 0.001 µM (active); in the test on SF-268, 0.0219 µM (active). In addition, the GI50 with MDA-MB-435 is < 0.001 µM (active); in the test with MCF7 it was < 0.001 µM (active); with SK-MEL-28, < 0.001 µM (active); in the test on EKVX it was 0.164 µM (active); in the test with KM12, < 0.001 µM (active); in the test on UO-31 it was 0.00822 µM (active). Also, the GI50 in the test on DU-145 was < 0.001 µM (active); in the test on T47D, < 0.001 µM (active); with SN12C, < 0.001 µM (active); in the test with RXF 393, 0.01 µM (active); in the test with NCI-H460, < 0.001 µM (active); with SF-295, 0.01 µM (active). Further, the GI50 in the test with CCRF-CEM is < 0.001 µM (active).
`Clc1ccc(C2=CCN3CC=C(c4ccc(Cl)cc4)C23)cc1`: the GI50 was 11.6 µM (inactive) in the test with 786-0; 12.6 µM (inactive) in the test with OVCAR-3; 12.2 µM (inactive) in the test with NCI/ADR-RES; 2.47 µM (inactive) with SK-MEL-5; 14.2 µM (inactive) in the test on OVCAR-8; 7.96 µM (inactive) in the test on SF-268. For the same molecule, the GI50 in the test on MDA-MB-435 was 10.7 µM (inactive); in the test on MCF7, 13.9 µM (inactive); with SK-MEL-28, 13.9 µM (inactive); in the test on EKVX, 15.3 µM (inactive); in the test with KM12, 6.64 µM (inactive); in the test with UO-31, 6.81 µM (inactive). Further, the GI50 with DU-145 is 14.7 µM (inactive); with T47D it was 12.7 µM (inactive); with SN12C, 8.71 µM (inactive); in the test on NCI-H460, 9.98 µM (inactive); with SF-295, 14.6 µM (inactive); in the test on CCRF-CEM it was 12.8 µM (inactive).
As for `CC(=O)OC1COC(n2c(N)c(C#N)c(C)c(C#N)c2=S)C(OC(C)=O)C1OC(C)=O` (stereo unspecified), the GI50 was > 100 µM (inactive) in the test on 786-0; > 100 µM (inactive) in the test with OVCAR-3; > 100 µM (inactive) with NCI/ADR-RES; > 100 µM (inactive) in the test on SK-MEL-5; > 100 µM (inactive) in the test with OVCAR-8; > 100 µM (inactive) and 85.5 µM (inactive) with SF-268. Also, the GI50 in the test on MDA-MB-435 is > 100 µM (inactive); in the test with MCF7 it was 88.1 µM (inactive); with SK-MEL-28, > 100 µM (inactive); in the test on KM12 it was > 100 µM (inactive); in the test with UO-31, > 100 µM (inactive); in the test on T47D, 55.3 µM (inactive) and 58.3 µM (inactive). Besides, the GI50 in the test on SN12C, in the test on NCI-H460 and in the test on SF-295 was > 100 µM (inactive) throughout.
`COc1ccccc1-c1nc(O)c2ccccc2n1`: the GI50 in the test with 786-0, in the test with OVCAR-3, in the test with NCI/ADR-RES, in the test on SK-MEL-5, in the test with OVCAR-8 and in the test with SF-268 was > 100 µM (inactive) in each case. Moreover, the GI50 in the test with MDA-MB-435 is > 100 µM (inactive); in the test on MCF7, > 100 µM (inactive); in the test with EKVX, 59.6 µM (inactive); in the test on KM12, > 100 µM (inactive); in the test with UO-31, > 100 µM (inactive); with DU-145, > 100 µM (inactive). The GI50 with T47D is 49.9 µM (inactive); in the test on SN12C it was 56 µM (inactive); in the test on RXF 393 it was > 100 µM (inactive); in the test on NCI-H460, > 100 µM (inactive); in the test on SF-295, > 100 µM (inactive); in the test on CCRF-CEM, > 100 µM (inactive).
Take `Cc1ccc2c(=O)c(C(=O)Nn3c(C)csc3=S)c[nH]c2n1`: the GI50 with 786-0, in the test with OVCAR-3, with NCI/ADR-RES, with SK-MEL-5, in the test on OVCAR-8 and in the test on SF-268 was > 100 µM (inactive) throughout. In addition, the GI50 in the test with MDA-MB-435, in the test with MCF7, with SK-MEL-28, with EKVX, in the test on KM12 and in the test on UO-31 was > 100 µM (inactive) throughout. Moreover, the GI50 with DU-145, with T47D, with SN12C, in the test with RXF 393, with NCI-H460 and in the test with SF-295 was > 100 µM (inactive) each time. For the same molecule, in the test on CCRF-CEM, the GI50 was > 100 µM (inactive).
As for `CONC(C)=O`, the GI50 in the test on 786-0, in the test on OVCAR-3, in the test with NCI/ADR-RES, in the test with SK-MEL-5, in the test with OVCAR-8 and in the test with SF-268 was > 100 µM (inactive) throughout. For the same molecule, the GI50 with MDA-MB-435, with MCF7, in the test on SK-MEL-28, in the test on EKVX, in the test with KM12 and with UO-31 was > 100 µM (inactive) in each case. The GI50 in the test with DU-145, in the test with T47D, in the test on SN12C, in the test on NCI-H460, in the test on SF-295 and in the test with CCRF-CEM was > 100 µM (inactive) in each case.
`FC(F)(F)C1(C(F)(F)F)C2CCC3(CC(F)(F)C(F)(F)S3)C1C2` (stereo unspecified): the GI50 with 786-0 is > 100 µM (inactive); in the test on OVCAR-3, 19.6 µM (inactive); in the test on NCI/ADR-RES, > 100 µM (inactive); in the test on SK-MEL-5 it was 44.3 µM (inactive); in the test with OVCAR-8, > 100 µM (inactive); in the test with SF-268 it was 44.6 µM (inactive). For the same molecule, the GI50 was 86.7 µM (inactive) in the test with MDA-MB-435; 36.1 µM (inactive) with MCF7; > 100 µM (inactive) in the test with SK-MEL-28; 32.4 µM (inactive) with EKVX; 76.6 µM (inactive) in the test on KM12; 28.8 µM (inactive) with UO-31. In addition, the GI50 in the test with DU-145 is 73.6 µM (inactive); in the test on T47D, > 100 µM (inactive); in the test with SN12C it was > 100 µM (inactive); in the test on RXF 393, 31.8 µM (inactive); in the test with NCI-H460, 41.3 µM (inactive); with SF-295, 55.1 µM (inactive). Further, the GI50 in the test with CCRF-CEM was 24.5 µM (inactive).
